Values of other authors, collected in PMC9516332 (Frontiers in Oncology, 2022).
Like-named read-outs stand apart in the source and are kept apart here.

Columns and labels:
Conditions in all cases: cited from earlier work
[1] = biological target: panel of 255 wild-type kinases (Homo sapiens, UniProt Q9Y2H1)
[2] = biological target: panel of 255 wild-type kinases (Homo sapiens, UniProt Q9UKE5)
[3] = biological target: T1, panel of 255 wild-type kinases (Homo sapiens, UniProt P43403)
T1 sequence (P43403 1-619): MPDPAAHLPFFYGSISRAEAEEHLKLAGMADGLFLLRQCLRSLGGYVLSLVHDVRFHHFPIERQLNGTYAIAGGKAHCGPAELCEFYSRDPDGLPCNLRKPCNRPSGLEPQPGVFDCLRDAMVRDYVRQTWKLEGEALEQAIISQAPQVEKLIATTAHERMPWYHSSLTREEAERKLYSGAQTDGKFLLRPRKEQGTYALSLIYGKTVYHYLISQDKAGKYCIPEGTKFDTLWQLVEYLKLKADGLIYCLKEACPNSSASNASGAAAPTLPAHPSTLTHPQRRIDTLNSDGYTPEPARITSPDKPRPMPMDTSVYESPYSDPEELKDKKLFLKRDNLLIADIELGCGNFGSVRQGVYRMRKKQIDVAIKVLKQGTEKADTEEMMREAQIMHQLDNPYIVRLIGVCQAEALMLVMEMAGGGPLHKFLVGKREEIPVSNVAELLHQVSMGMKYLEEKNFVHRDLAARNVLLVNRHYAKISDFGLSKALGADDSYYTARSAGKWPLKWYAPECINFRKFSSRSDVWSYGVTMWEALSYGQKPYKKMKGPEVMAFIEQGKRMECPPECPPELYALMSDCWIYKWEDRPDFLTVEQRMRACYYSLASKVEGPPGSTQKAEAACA

[4] = biological target: panel of 255 wild-type kinases (Homo sapiens, UniProt Q05655)
[5] = biological target: T2, panel of 255 wild-type kinases (Homo sapiens, UniProt Q13470)
T2 sequence (Q13470 1-666): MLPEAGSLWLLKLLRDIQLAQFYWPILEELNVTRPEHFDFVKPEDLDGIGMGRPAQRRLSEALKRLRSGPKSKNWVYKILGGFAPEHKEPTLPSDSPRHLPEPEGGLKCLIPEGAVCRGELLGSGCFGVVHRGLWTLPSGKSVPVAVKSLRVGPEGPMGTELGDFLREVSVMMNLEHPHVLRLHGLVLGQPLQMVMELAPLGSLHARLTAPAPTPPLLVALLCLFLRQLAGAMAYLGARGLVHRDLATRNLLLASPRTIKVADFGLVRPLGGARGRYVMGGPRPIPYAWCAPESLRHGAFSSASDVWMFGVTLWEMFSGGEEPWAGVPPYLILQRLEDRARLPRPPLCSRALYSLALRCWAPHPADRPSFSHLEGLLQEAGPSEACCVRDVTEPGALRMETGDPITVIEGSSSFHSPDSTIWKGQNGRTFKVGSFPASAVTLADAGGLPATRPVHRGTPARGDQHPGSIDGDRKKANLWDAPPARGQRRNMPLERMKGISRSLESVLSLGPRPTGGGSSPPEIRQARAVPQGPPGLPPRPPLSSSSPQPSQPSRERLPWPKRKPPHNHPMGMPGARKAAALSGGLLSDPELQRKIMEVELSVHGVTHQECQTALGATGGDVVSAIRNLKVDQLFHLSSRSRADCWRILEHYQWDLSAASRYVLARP

[6] = biological target: panel of 255 wild-type kinases (Homo sapiens, UniProt Q15303)
[7] = biological target: T3, panel of 255 wild-type kinases (Homo sapiens, UniProt P29323)
T3 sequence (P29323 19-1055): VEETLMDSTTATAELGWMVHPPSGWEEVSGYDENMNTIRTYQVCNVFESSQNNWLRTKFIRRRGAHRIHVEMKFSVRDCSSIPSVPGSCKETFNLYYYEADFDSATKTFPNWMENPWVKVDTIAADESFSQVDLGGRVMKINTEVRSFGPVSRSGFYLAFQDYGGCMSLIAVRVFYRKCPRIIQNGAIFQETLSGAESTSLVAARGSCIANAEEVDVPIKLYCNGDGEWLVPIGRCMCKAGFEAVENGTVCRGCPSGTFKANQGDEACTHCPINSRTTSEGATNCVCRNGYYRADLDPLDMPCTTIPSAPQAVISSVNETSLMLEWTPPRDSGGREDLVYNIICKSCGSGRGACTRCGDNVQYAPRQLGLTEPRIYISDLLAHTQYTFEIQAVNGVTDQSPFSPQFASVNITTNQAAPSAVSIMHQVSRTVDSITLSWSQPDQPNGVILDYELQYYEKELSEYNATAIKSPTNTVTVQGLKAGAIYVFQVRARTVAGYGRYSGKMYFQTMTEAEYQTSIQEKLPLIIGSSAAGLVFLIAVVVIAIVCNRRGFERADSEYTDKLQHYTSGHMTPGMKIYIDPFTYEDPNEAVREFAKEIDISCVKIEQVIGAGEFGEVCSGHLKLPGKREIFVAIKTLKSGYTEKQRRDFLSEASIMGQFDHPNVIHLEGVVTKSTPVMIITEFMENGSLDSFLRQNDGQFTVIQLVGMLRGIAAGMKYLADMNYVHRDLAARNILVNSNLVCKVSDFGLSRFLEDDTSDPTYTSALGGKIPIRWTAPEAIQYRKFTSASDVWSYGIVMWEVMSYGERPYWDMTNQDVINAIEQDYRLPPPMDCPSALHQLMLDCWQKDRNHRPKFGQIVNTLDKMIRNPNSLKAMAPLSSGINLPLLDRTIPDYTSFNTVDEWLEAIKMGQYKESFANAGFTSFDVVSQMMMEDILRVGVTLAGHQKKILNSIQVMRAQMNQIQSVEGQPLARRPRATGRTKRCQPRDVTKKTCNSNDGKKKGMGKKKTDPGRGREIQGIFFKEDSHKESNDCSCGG

SMILES | %-inhibition, NDR2 ([1]; NDR2, 1 µmol/L single concentration, ref DOI: 10.1158/1535-7163.MCT-18-0877) [%] | %-inhibition at 1 µmol/L, TNIK ([2]; kinase TNIK, 1 µmol/L single concentration, ref DOI: 10.1158/1535-7163.MCT-18-0877) [%] | %-inhibition at 1 µmol/L, ZAP70 ([3]; kinase ZAP70, 1 µmol/L single concentration, ref DOI: 10.1158/1535-7163.MCT-18-0877) [%] | %-inhibition at 1 µmol/L, PKCδ ([4]; kinase PKCδ, 1 µmol/L single concentration, ref DOI: 10.1158/1535-7163.MCT-18-0877) [%] | %-inhibition at 1 µmol/L, TNK1 ([5]; kinase TNK1, 1 µmol/L single concentration, ref DOI: 10.1158/1535-7163.MCT-18-0877) [%] | %-inhibition at 1 µmol/L, HER4 ([6]; kinase HER4, 1 µmol/L single concentration, ref DOI: 10.1158/1535-7163.MCT-18-0877) [%] | %-inhibition at 1 µmol/L, EPHB2 ([7]; kinase EPHB2, 1 µmol/L single concentration, ref DOI: 10.1158/1535-7163.MCT-18-0877) [%] | %-inhibition, NDR2 [1] [%] | %-inhibition at 1 µmol/L, TNIK [2] [%] | %-inhibition at 1 µmol/L, ZAP70 [3] [%] | %-inhibition at 1 µmol/L, PKCδ [4] [%] | %-inhibition at 1 µmol/L, TNK1 [5] [%] | %-inhibition at 1 µmol/L, HER4 [6] [%] | %-inhibition at 1 µmol/L, EPHB2 [7] [%]
CCc1cc2c(cc1N1CCC(N3CCOCC3)CC1)C(C)(C)c1[nH]c3cc(C#N)ccc3c1C2=O [alectinib] | 4 | 31 | 1.18 | 1.83 | 11 | 34 | 27 | – | – | – | – | – | – | –
COc1cc(N2CCC(N3CCN(C)CC3)CC2)ccc1Nc1ncc(Cl)c(Nc2ccccc2P(C)(C)=O)n1 [brigatinib] | – | – | – | – | – | – | – | 62 | 19 | 74 | 34 | 101 | 99 | 10
